Laboratory results as given in PMC6437697 (Journal of Medicinal Chemistry, 2019).

Assays:
Experiment in all cases: KINOMEscan
Type in all cases: binding
Settings in all cases: read-out: % control activity remaining
BMX = target: T1, BMX (Homo sapiens, UniProt P51813)
T1 construct: purchased Eurofins DiscoverX KINOMEscan
T1 sequence (P51813 1-675): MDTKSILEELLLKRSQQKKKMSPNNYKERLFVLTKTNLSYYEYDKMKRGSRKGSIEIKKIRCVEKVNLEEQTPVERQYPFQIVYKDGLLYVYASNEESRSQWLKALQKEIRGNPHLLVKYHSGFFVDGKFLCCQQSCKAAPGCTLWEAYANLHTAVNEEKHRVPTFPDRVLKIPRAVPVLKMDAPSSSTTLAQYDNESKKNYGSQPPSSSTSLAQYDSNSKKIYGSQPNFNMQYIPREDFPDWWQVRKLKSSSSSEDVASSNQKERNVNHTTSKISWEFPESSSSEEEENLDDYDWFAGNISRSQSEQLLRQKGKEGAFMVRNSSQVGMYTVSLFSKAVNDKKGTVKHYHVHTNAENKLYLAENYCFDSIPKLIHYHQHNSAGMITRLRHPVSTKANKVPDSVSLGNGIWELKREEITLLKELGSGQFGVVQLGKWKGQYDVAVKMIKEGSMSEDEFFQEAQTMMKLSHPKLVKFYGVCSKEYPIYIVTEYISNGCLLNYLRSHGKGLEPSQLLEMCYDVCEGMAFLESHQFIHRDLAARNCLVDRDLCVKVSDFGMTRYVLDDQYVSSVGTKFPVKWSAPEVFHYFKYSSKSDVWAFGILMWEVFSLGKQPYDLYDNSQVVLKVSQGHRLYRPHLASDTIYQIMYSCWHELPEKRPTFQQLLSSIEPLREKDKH

EPHB2 = target: T2, EPHB2 (Homo sapiens, UniProt P29323)
T2 construct: purchased Eurofins DiscoverX KINOMEscan
T2 sequence (P29323 19-1055): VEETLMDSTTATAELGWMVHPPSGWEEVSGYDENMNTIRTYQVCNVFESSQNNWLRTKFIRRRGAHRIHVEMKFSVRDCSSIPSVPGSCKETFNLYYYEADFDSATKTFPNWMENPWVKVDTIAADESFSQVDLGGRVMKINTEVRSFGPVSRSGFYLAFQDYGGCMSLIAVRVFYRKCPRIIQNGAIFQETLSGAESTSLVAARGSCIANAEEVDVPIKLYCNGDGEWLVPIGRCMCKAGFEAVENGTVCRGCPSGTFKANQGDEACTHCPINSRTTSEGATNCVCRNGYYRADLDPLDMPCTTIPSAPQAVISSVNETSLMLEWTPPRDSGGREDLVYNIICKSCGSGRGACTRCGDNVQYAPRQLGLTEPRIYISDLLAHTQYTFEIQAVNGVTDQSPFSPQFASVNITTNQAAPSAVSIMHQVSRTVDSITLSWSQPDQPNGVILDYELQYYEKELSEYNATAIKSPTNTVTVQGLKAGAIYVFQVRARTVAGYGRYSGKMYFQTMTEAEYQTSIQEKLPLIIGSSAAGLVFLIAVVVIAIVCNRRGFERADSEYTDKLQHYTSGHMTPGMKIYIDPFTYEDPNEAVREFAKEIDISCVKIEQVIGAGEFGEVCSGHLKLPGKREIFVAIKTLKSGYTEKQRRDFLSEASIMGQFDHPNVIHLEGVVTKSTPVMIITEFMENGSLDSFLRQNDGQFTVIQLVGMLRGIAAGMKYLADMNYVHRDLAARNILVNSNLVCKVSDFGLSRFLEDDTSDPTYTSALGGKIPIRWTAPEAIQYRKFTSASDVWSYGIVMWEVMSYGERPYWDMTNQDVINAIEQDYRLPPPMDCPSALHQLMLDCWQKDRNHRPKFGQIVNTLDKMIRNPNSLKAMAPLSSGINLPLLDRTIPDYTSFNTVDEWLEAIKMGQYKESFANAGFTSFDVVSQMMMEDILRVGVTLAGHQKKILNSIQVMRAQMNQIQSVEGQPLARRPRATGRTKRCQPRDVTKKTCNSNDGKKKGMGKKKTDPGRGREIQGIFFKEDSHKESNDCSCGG

FLT3 = target: T3, FLT3 (Homo sapiens, UniProt P36888)
T3 construct: purchased Eurofins DiscoverX KINOMEscan
T3 sequence (P36888 27-993): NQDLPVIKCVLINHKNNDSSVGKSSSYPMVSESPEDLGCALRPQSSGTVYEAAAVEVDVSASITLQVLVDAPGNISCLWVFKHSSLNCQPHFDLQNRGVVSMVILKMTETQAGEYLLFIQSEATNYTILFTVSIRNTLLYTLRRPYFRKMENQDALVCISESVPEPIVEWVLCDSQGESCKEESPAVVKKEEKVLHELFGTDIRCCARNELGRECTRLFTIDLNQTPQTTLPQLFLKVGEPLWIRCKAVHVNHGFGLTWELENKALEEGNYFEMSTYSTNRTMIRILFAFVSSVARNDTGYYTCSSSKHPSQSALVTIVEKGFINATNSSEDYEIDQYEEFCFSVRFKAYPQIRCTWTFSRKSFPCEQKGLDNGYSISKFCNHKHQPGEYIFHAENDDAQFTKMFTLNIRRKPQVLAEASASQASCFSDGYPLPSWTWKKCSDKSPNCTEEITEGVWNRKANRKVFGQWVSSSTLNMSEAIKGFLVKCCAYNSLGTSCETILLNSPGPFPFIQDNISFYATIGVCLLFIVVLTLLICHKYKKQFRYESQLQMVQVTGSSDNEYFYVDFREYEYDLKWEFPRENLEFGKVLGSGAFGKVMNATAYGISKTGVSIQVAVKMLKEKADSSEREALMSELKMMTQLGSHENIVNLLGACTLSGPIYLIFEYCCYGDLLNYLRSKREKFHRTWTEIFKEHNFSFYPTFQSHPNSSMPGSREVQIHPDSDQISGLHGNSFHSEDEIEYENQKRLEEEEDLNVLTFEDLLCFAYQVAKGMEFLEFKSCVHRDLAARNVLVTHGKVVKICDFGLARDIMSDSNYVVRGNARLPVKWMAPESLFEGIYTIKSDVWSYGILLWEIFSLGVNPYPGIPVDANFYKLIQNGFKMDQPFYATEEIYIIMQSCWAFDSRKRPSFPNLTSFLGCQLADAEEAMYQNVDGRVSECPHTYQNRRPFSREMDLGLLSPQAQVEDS

ROCK2 = target: T4, ROCK2 (Homo sapiens, UniProt O75116)
T4 construct: purchased Eurofins DiscoverX KINOMEscan
T4 sequence (O75116 whole entry): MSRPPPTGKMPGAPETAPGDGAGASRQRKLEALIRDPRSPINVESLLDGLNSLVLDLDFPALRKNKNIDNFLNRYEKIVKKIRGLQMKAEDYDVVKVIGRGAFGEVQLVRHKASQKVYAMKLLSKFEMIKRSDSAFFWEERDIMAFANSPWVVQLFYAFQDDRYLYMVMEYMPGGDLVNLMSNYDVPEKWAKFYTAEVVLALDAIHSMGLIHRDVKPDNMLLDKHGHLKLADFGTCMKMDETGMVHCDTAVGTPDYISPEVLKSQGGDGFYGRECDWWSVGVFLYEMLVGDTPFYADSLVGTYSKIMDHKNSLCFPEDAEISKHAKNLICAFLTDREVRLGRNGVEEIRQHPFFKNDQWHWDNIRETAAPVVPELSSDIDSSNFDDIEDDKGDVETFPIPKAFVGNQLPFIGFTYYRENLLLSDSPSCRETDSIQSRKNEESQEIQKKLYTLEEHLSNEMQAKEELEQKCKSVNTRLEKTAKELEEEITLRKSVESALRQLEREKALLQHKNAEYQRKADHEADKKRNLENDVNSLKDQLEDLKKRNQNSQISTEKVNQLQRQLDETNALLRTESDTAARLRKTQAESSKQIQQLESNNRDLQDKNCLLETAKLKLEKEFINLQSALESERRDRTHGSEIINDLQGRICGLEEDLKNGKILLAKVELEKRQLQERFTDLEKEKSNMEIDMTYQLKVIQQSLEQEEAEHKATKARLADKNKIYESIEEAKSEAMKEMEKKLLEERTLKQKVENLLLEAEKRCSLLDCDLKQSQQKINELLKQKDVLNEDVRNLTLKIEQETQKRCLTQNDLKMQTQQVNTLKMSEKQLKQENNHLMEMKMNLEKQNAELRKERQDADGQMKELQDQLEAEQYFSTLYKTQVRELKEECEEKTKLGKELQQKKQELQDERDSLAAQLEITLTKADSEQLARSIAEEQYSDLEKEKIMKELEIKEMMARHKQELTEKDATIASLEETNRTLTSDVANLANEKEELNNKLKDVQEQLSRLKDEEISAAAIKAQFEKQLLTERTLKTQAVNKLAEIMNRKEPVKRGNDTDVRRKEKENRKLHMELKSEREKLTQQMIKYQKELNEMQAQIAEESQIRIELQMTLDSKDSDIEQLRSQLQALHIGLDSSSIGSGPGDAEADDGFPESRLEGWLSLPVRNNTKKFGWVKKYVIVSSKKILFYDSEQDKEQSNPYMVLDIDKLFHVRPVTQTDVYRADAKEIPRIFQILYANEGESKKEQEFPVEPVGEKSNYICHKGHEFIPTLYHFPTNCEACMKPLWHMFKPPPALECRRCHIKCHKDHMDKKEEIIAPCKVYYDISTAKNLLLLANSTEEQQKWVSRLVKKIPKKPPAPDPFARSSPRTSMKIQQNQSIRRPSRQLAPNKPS

With `Clc1cc(NCC2CC2)c2ncc(-c3ccc4[nH]ncc4c3)n2n1` [compound 2, 6-Chloro-N-(cyclopropylmethyl)-3-(1H-indazol-5-yl)imidazo[1,2-b]pyridazin-8-amine] the remaining binding at 1 µM (BMX) was 96%, the remaining binding at 1 µM (EPHB2) was 83% and the remaining binding at 1 µM (FLT3) was 2.5%. For the same molecule, the remaining binding at 1 µM (ROCK2) was 31%.

`O=C(CN1CCOCC1)N[C@H]1CC[C@H](Nc2cc(Cl)nn3c(-c4ccc5[nH]ncc5c4)cnc23)CC1` [compound 26] was tested, and the remaining binding at 1 µM (BMX) was 92%, the remaining binding at 1 µM (EPHB2) was 94% and the remaining binding at 1 µM (FLT3) was 3%. For the same molecule, the remaining binding at 1 µM (ROCK2) was 21%.

Molecule `CN1CCC(CNc2cc(Cl)nn3c(-c4cc5nc(Nc6ccccc6)[nH]c5cc4F)cnc23)CC1` [compound 31, 6-Chloro-3-(6-fluoro-2-(phenylamino)-1H-benzo[d]imidazol-5-yl)-N-((1-methylpiperidin-4-yl)methyl)imidazo[1,2-b]pyridazin-8-amine] has a remaining binding at 1 µM (BMX) of 100%, a remaining binding at 1 µM (EPHB2) of 96% and a remaining binding at 1 µM (FLT3) of 83%. It also gave a remaining binding at 1 µM (ROCK2) of 100%.
